The record followed here is PubChem BioAssay AID504934 (The Scripps Research Institute Molecular Screening Center, 2011).

Holding throughout (experiment): PubChem AID 504934
Assay [1] has as its system PGR. As to conditions: nuclear receptor panel Gal4 luciferase reporter, at 10 µM.
Assay [2] concerns the target Estrogen receptor (Homo sapiens) (UniProt P03372). As to conditions: nuclear receptor panel Gal4 luciferase reporter, ESR1 (ESRA; Era), at 10 µM.
Assay [3] concerns NOR1. As to conditions: nuclear receptor panel Gal4 luciferase reporter, at 10 µM.
For assay [4], the system named is HNF4g. As to conditions: nuclear receptor panel Gal4 luciferase reporter, at 10 µM.
The target of assay [5] is Steroidogenic factor 1 (Homo sapiens) (UniProt Q13285). As to conditions: nuclear receptor panel Gal4 luciferase reporter, SF1, at 10 µM.
Steroidogenic factor 1 (Homo sapiens), sequence (Q13285 whole entry, looked up, the tested form may be a part): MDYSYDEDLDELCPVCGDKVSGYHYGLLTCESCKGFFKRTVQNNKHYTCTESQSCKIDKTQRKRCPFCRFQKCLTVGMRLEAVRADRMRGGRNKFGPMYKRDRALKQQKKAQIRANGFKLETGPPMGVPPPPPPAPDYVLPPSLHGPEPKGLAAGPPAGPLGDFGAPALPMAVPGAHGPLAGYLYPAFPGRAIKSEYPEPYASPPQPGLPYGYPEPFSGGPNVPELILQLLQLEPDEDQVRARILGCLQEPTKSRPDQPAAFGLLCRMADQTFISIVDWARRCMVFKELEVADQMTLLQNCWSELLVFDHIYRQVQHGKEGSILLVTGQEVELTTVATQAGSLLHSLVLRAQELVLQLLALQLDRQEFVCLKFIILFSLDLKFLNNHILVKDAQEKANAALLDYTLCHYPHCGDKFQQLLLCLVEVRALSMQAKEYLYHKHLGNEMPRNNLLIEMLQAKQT
Assay [6] concerns the target Nuclear receptor ROR-gamma (Homo sapiens) (UniProt P51449). As to conditions: nuclear receptor panel Gal4 luciferase reporter, RORg, at 10 µM.
Assay [7] relates to Rev-erb b. As to conditions: nuclear receptor panel Gal4 luciferase reporter, at 10 µM.
Assay [8] relates to PPARd. As to conditions: nuclear receptor panel Gal4 luciferase reporter, at 10 µM.
The target of assay [9] is Glucocorticoid receptor (Homo sapiens) (UniProt P04150). As to conditions: nuclear receptor panel Gal4 luciferase reporter, GCCR, at 10 µM.
Glucocorticoid receptor (Homo sapiens), sequence (P04150 whole entry, looked up, the tested form may be a part): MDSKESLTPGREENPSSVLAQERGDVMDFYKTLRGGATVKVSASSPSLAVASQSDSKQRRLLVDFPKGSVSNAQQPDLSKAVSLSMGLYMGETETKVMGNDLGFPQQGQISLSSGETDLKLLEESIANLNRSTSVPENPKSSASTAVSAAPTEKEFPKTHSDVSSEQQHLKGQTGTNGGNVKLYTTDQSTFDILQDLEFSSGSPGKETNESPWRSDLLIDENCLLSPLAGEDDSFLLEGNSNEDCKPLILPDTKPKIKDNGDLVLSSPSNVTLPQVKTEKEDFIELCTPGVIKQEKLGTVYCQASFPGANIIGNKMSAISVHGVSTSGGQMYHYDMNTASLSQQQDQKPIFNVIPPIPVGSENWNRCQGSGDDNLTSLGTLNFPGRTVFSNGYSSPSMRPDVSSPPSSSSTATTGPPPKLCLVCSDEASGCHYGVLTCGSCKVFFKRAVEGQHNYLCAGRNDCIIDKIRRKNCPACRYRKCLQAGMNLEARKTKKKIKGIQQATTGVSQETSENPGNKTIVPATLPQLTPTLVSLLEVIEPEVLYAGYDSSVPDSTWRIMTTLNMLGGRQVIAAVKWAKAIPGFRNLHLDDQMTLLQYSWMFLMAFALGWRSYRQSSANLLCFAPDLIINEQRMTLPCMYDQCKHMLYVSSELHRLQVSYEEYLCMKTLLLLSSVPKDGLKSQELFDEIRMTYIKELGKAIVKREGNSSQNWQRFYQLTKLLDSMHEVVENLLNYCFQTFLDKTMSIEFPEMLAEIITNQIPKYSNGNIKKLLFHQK
For assay [10], the target named is Estrogen receptor beta (Homo sapiens) (UniProt Q92731). As to conditions: nuclear receptor panel Gal4 luciferase reporter, Erb (ESR2), at 10 µM.
Estrogen receptor beta (Homo sapiens), sequence (Q92731 whole entry, looked up, the tested form may be a part): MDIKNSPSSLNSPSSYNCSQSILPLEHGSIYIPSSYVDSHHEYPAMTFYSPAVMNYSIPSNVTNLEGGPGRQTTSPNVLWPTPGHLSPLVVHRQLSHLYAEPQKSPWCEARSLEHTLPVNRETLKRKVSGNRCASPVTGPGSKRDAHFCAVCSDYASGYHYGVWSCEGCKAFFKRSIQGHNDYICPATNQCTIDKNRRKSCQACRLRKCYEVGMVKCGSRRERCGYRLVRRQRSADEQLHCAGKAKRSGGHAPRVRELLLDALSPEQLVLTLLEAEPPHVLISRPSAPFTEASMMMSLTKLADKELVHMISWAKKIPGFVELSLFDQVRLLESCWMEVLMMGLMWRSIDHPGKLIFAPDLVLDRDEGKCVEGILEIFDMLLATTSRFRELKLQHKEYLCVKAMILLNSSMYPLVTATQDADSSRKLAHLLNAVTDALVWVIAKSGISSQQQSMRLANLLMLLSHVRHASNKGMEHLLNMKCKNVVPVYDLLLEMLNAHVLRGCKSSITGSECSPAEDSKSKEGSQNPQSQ
Assay [11] deals with SHP. As to conditions: nuclear receptor panel Gal4 luciferase reporter, at 10 µM.
Assay [12] deals with TR4. As to conditions: nuclear receptor panel Gal4 luciferase reporter, at 10 µM.
Assay [13] deals with TLX. As to conditions: nuclear receptor panel Gal4 luciferase reporter, at 10 µM.
The target in assay [14] is Retinoic acid receptor alpha (Homo sapiens) (UniProt P10276). As to conditions: nuclear receptor panel Gal4 luciferase reporter, RARa, at 10 µM.
Retinoic acid receptor alpha (Homo sapiens), sequence (P10276 whole entry, looked up, the tested form may be a part): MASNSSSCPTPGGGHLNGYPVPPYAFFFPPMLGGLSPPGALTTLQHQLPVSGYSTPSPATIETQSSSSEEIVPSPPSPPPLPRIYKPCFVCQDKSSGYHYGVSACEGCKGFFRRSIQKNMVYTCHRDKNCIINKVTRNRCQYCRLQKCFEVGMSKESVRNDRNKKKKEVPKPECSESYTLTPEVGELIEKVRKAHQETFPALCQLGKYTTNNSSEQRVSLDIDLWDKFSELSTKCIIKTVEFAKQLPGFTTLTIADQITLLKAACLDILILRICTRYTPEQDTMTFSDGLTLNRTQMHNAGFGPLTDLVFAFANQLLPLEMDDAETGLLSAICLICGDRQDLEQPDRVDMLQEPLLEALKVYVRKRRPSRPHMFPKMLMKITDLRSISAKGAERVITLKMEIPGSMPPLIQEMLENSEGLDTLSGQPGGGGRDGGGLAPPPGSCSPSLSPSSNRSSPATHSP
The test system of assay [15] is LXRa. As to conditions: nuclear receptor panel Gal4 luciferase reporter, at 10 µM.
For assay [16], the system named is ERRg. As to conditions: nuclear receptor panel Gal4 luciferase reporter, at 10 µM.
Assay [17] deals with PNR. As to conditions: nuclear receptor panel Gal4 luciferase reporter, at 10 µM.
Assay [18] addresses Nuclear receptor subfamily 5 group A member 2 (Homo sapiens) (UniProt O00482). As to conditions: nuclear receptor panel Gal4 luciferase reporter, LRH1, at 10 µM.
Assay [19] has as its target Nuclear receptor ROR-alpha (Homo sapiens) (UniProt P35398). As to conditions: nuclear receptor panel Gal4 luciferase reporter, RORa, at 10 µM.
The subject of assay [20] is RORb. As to conditions: nuclear receptor panel Gal4 luciferase reporter, at 10 µM.
Assay [21] deals with COUP transcription factor 2 (Homo sapiens) (UniProt P24468). As to conditions: nuclear receptor panel Gal4 luciferase reporter, Coup-TF2, at 10 µM.
COUP transcription factor 2 (Homo sapiens), sequence (P24468 whole entry, looked up, the tested form may be a part): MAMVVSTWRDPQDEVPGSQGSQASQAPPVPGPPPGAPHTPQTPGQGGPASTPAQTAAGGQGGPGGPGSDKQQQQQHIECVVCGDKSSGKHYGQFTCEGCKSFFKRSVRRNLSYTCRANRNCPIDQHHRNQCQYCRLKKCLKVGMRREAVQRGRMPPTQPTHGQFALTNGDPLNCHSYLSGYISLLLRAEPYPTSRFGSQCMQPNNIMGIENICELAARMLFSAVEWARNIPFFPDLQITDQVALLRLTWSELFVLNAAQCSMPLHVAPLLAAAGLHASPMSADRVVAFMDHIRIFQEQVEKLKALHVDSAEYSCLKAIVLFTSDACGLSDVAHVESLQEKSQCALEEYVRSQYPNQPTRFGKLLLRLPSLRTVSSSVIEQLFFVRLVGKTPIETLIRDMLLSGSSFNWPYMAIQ
The subject of assay [22] is TR2. As to conditions: nuclear receptor panel Gal4 luciferase reporter, at 10 µM.
In assay [23] the test system is AR. As to conditions: nuclear receptor panel Gal4 luciferase reporter, at 10 µM.

Calls of active or inactive are those of the source. How the calls were made is not given here.

Estrogen receptor (Homo sapiens), sequence (P03372 whole entry, looked up, the tested form may be a part): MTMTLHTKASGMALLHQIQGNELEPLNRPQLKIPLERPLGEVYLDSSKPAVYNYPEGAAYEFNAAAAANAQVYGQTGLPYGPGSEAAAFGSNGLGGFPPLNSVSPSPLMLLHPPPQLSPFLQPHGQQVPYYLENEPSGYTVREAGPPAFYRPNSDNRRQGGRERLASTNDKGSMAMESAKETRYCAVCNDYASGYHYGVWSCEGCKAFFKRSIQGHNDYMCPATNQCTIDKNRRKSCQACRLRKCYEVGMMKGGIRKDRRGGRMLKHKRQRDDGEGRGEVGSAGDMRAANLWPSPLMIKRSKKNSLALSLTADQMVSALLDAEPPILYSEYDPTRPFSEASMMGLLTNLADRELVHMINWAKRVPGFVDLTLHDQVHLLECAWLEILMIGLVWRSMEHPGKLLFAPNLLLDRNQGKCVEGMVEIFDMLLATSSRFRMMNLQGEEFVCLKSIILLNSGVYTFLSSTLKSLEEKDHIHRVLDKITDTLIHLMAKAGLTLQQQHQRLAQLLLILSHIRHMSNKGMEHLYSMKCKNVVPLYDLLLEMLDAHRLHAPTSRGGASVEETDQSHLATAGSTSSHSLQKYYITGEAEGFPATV
Nuclear receptor ROR-gamma (Homo sapiens), sequence (P51449 whole entry, looked up, the tested form may be a part): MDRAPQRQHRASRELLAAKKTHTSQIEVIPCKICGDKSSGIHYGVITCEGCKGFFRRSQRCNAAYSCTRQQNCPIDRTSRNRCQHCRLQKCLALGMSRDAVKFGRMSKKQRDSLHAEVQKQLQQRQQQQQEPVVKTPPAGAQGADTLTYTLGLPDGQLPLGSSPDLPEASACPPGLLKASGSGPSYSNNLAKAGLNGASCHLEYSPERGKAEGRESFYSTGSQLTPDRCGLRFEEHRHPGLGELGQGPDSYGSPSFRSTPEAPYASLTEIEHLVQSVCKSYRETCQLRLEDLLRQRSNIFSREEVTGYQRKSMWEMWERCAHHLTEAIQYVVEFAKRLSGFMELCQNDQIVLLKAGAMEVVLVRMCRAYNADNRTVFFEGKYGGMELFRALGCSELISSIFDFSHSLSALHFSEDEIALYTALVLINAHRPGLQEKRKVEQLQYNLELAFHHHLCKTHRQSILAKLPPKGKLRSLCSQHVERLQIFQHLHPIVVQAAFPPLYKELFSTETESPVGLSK
Nuclear receptor subfamily 5 group A member 2 (Homo sapiens), sequence (O00482 whole entry, looked up, the tested form may be a part): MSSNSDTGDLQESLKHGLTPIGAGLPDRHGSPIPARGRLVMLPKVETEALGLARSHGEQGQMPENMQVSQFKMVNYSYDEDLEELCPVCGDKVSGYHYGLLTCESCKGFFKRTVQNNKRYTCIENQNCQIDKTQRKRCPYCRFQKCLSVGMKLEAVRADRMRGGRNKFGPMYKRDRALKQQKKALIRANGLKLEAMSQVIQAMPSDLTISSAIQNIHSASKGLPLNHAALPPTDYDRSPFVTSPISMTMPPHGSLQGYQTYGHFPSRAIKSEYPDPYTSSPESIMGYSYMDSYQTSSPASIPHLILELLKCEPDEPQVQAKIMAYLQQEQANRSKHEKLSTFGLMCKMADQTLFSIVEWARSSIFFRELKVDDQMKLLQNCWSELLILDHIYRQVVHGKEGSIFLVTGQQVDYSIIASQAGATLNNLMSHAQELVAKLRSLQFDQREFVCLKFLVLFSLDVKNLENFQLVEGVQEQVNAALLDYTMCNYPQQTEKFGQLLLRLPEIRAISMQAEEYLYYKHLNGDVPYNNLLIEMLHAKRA
Nuclear receptor ROR-alpha (Homo sapiens), sequence (P35398 whole entry, looked up, the tested form may be a part): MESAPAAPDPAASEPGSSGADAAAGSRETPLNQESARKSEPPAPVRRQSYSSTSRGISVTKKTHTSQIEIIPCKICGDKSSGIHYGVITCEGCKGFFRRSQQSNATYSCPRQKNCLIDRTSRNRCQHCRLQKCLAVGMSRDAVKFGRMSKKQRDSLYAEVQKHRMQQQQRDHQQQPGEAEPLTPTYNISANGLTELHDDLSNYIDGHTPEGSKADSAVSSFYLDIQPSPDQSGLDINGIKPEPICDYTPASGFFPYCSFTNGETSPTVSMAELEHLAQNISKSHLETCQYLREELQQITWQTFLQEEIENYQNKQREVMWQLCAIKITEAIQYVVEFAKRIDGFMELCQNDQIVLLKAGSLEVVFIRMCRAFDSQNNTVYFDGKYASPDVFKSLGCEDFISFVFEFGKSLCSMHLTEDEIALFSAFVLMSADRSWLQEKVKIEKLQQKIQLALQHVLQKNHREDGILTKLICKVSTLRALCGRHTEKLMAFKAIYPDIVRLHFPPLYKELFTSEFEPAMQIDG

`O=c1cc(N2CCN(c3cccc(Cl)c3)CC2)[nH]c(=O)n1C1CCCCC1`: the fold change was 0.97 (inactive) in assay [1]; 0.61 in assay [2]; 0.87 (inactive) in assay [3]; 0.44 in assay [4]; 0.71 in [5]; 0.52 in assay [6]. In addition, the fold change is 0.69 in assay [7]; 1.54 in [8]; 1.13 (inactive) in assay [9]; 0.56 in assay [10]; 0.86 (inactive) in assay [11]; 0.8 in [12]. For the same molecule, the fold change in assay [13] is 0.88 (inactive); in assay [14], 0.47; in assay [15], 1.27; in [16], 0.49; in assay [17] it was 0.72; in assay [18], 0.88 (inactive). The fold change was 1 (inactive) in [19]; 0.82 (inactive) in [20]; 1.04 (inactive) in [21]; 0.63 in assay [22]; 0.91 (inactive) in [23].
